The values that follow are results of earlier work, collected in patent US9039924B2 (priority 2010, dated 2015).

The subject of this data set is rat. The following applies: in vivo; for LD50 values below 1000 or toxic: po.

On to `NC(N)=O` [CO(NH2)2, urea], for which the “LD50 (oral-rat; mg/kg)” value is 8471 mg/kg.

Consider `N#C[O-].[K+]` [KCNO, potassium cyanate], for which the “LD50 values below 1000 or toxic” value is listed as “below 1000”.

Turning to `O=N[O-].[K+]` [KNO2, potassium nitrite], the “LD50 values below 1000 or toxic” value is listed as “below 1000”.

Regarding `O.O.O.O.O.O=S([O-])([O-])=S.[Na+].[Na+]` [Na2S2O3•5H2O, sodium thiosulfate pentahydrate], the “LD50 (oral-rat; mg/kg)” value is listed as 2300 mg/kg.

With `N#CO` [NaCNO, sodium cyanate], the “LD50 (oral-rat; mg/kg)” value is 5 mg/kg and the “LD50 values below 1000 or toxic” value is recorded as “below 1000”.

For the compound `O=NO` [NaNO2, sodium nitrite], the “LD50 values below 1000 or toxic” value was “below 1000”.

Consider ammonium thiocyanide [NH4CNS], for which the “LD50 (oral-rat; mg/kg)” value is 954 mg/kg and the “LD50 values below 1000 or toxic” value is “below 1000”.

As to potassium bromide [KBr], the “LD50 (oral-rat; mg/kg)” value was 3070 mg/kg.

As to potassium chloride [KCl], the “LD50 (oral-rat; mg/kg)” value was 2600 mg/kg.

As for “potassium fluoride dihydrate [KF•2(H2O)]”, the “LD50 (oral-rat; mg/kg)” value is 245 mg/kg and the “LD50 values below 1000 or toxic” value was “below 1000”.

On to potassium iodide [KI], for which the “LD50 (oral-rat; mg/kg)” value is listed as 1862 mg/kg.

For the compound “potassium thiosulfate pentahydrate [K2S2O3•5H2O]”, the “LD50 (oral-rat; mg/kg)” value is 802 mg/kg and the “LD50 values below 1000 or toxic” value is “below 1000”.
